According to patent US6416783B1, “Aspartic and malic acid inhibition of ss-glucuronidase” (Wisconsin Alumni Research Foundation, priority 1999, dated 2002):
Values joined by “and” are separate entries in the source; they are usually repeats but may differ in a detail not shown here. Equal entries are not always repeated. Where two headings read alike, the source gives them in different places.

Legend:
β-glucuronidase = target: T1, β-glucuronidase (Homo sapiens, UniProt P08236); experiment: Standard Test: β-glucuronidase activity of human breast milk with MUG substrate (fluorescence); type: biochemical; conditions: for remaining activity at 100 µM / remaining activity at 1000 µM / remaining activity at 10000 µM / β-glucuronidase activity, % (of control) / X (mean activity) / β-glucuronidase activity (row unlabelled): Example 4; for β-glucuronidase activity, % (of control): 0.1, 1, 10 mM; for X (mean activity) / mean (X̄) activity: mean of 3; for X (mean activity) / β-glucuronidase activity (row unlabelled): in pmol/tube/h; for β-glucuronidase activity (row unlabelled) / Activity (pmole/tube/hr): single replicates
T1 construct: We used human breast milk collected and pooled from a newborn nursery as the β-glucuronidase source; from tissue
T1 sequence (P08236 23-651): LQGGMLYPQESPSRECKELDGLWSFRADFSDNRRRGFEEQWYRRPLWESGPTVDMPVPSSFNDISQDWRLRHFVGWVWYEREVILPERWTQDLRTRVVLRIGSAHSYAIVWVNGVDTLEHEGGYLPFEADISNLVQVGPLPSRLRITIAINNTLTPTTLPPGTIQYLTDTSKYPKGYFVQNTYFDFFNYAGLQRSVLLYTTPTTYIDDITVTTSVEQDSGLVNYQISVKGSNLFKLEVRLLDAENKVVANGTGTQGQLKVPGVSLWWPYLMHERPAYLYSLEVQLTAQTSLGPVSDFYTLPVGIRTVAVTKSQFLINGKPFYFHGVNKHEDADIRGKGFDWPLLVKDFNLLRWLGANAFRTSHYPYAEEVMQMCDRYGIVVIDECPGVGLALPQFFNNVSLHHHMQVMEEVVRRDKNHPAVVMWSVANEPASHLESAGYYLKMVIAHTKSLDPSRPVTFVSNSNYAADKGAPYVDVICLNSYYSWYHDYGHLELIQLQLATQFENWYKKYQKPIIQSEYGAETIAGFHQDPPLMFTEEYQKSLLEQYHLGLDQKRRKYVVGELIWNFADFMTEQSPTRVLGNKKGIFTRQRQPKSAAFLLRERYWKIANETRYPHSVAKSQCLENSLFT
Description: We first developed a standard assay procedure (the “Standard Test”). We used human breast milk collected and pooled from a newborn nursery as the β-glucuronidase source. The samples were stored at −20° C. The milk was thawed and diluted 10× with 0.2 M sodium acetate/glacial acetic acid (NaAC) buffer pH 4.5 just prior to being used. A 4.0 mM stock solution of 4-methylumbelliferyl β-D-glucuronide (MUG, Sigma M-9130 lot#75H3777) was prepared in 0.2 M NaAC buffer pH 4.5.
Triplicate test and blank tubes contained a reaction mixture consisting of 50 μL diluted breast milk and 50 μL of an inhibitor solution diluted with 0.2 M NaAC buffer pH 4.5. Controls were prepared that contained only 50 μL diluted breast milk and 50 μL 0.2 M NaAC buffer pH 4.5. The assay was started by adding 25 μl of the MUG (4.0 mM, 0.800 mM final concentration) to the test sample to start the reaction. The final volume of the reaction was 125 μL. Both blank and test samples were vortexed and incubated at 37° C. for 1 hour (or for shorter times if indicated).
The reaction was quenched in both the test and blank samples with 3.0 ml of glycine-carbonate (320 mM: 200 mM) buffer pH 10.0. The blank samples had 25 μl of the MUG (4.0 mM, 0.800 mM final) added to them and all tubes were vortexed.
The resulting fluorescence was read using a Perkin Elmer LS5-B fluorescence spectrophotometer (360 nm excitation, 445 nm emission, autorange scale). The amount of 4-methylumbelliferone (4-MU) released by the β-glucuronidase was calculated using a 4-MU quadratic standard curve and the Mathplot software. The velocity was calculated as pmoles of 4-MU formed per hour per ml undiluted breast milk.
We diluted pooled breast milk 20× with 0.2 M NaAC buffer pH 4.5. We diluted 2.2% w/v solution of Amicase (Sigma Cat. #A2427—a mixture of free amino acids with virtually no unhydrolyzed peptides, only minimal inorganic components are present, total nitrogen ˜12.8%, amino nitrogen ˜9.8%) with buffer 5×. We then incubated 50 μl milk with 50 μl buffer and Amicase. We then added 25 μl MUG to start the reaction. We then quenched with Na-carbonate buffer pH 10.0 and read fluorescence at 360 nm ex 445 nm em. Autorange scale. The mixture of amino acids was compared to controls and Nutramigen® as follows:
We then studied the effect of specific amino acid mixtures on β-glucuronidase activity. We diluted pooled breast milk 10× with 0.2 M NaAC buffer pH 4.5 and diluted 50×stock essential amino acid solution (Sigma Cat #M7020=L-arginine.HCl 6.32 g/L, L-cystine 1.2 g/L, L-histidine.HCl.H20 2.1 g/L, L-isoleucine 2.625 g/L, L-leucine 2.62 g/L, L-lyscine.HCl 3.625 g/L, L-methionine 0.755 g/L, L-phenylalanine 1.65 g/L, L-threonine 2.38 g/L, L-tryptophane 0.51 g/L, L-tyrosine 1.8 g/L, L-valine 2.34 g/L).
We also used a non-essential AA solution=Sigma Cat #M7145=L-alanine HCl 0.89 g/L, L-asparagine.H20 1.50 g/L, L-aspartic acid 1.33 g/L, L-glutamic acid 1.47 g/L, glycine 0.75 g/L, L-proline 1.15 g/L, L-serine 1.05 g/L.
We 5×diluted 100×stock essential AA solution. We incubated 50 μl diluted milk with 50 μl buffer (control), or the essential AA solution, or the non-essential AA solution, or Nutramigen® RTU, added 25 μl MUG to start the reaction, quenched with Na-carbonate buffer, and read fluorescence (360 nm excitation: 445 nm emission). The results are as follows:
We then analyzed inhibitory effect of each of the seven amino acids in the non-essential amino acid mixture. We diluted pooled breast milk 10× with 0.2 M NaAC buffer pH 4.5, and diluted Nutramigen® RTU (N) and Nutramigen® lipid-free supernatant (LFS) 5 fold with 0.2 M NaAC buffer pH 4.5.
We prepared stock solutions of each of the non-essential amino acids L-alanine (Ala), L-asparagine (Asn), L-aspartic acid (Asp), L-glutamic acid (Glu), glycine (Gly), L-proline (Pro), and L-Serine (Ser). All solutions were at pH 4.5. The final concentration of each amino acid in the assay was the same as when the amino acids were analyzed as a mixture. […]

[1] = cited from earlier work
[2] = 0.1 mM, read-out: % (activity relative to control)
[3] = 1 mM, read-out: % (activity relative to control)
[4] = 10 mM, read-out: % (activity relative to control)

remaining activity at 100 µM (β-glucuronidase; [2]) [%] | remaining activity at 1000 µM (β-glucuronidase; [3]) [%] | remaining activity at 10000 µM (β-glucuronidase; [4]) [%] | β-glucuronidase activity, % (of control) (β-glucuronidase) | X (mean activity) (β-glucuronidase; 0.1 mM) | X (mean activity) (β-glucuronidase; 1 mM) | X (mean activity) (β-glucuronidase; 10 mM) | β-glucuronidase activity (row unlabelled) (β-glucuronidase; 0.1 mM) | β-glucuronidase activity (row unlabelled) (β-glucuronidase; 1 mM) | β-glucuronidase activity (row unlabelled) (β-glucuronidase; 10 mM) | SMILES | other results
98.4 | 99.3 | 100 | 98-100% | 814.1 | 821.6 | 827.9 | 811.8 and 817.0 and 813.4 | 805.6 and 850.0 and 809.3 | 835.1 and 824.1 and 824.3 | CC(=O)N[C@H]1C(O)O[C@H](CO)[C@H](O)[C@@H]1O (stereo partly drawn) [NAG, N-acetyl-D-galactosamine] | 
99.3 | 99.2 | 110 | 99-100% | 821.9 | 820.5 | 905.7 | 806.4 and 848.2 and 810.9 | 829.9 and 827.6 and 803.9 | 897.8 and 912.1 and 907.2 | CC(=O)N[C@H]1[C@H]([C@H](O)[C@H](O)CO)OC(O)(C(=O)O)C[C@@H]1O (some centres unmarked) [NAN, N-acetylneuraminic acid] | 
 |  |  |  |  |  |  |  |  |  | O=C(O)[C@@H]1CCCN1 [Pro, L-proline] | remaining activity at 46 µg/mL (β-glucuronidase; Example 3, 46.0 μg/ml, read-out: % (activity relative to control)): 99.3%; mean (X̄) activity (β-glucuronidase; Example 3, 46.0 μg/ml): 669.6 pmole/tube/hr; Activity (pmole/tube/hr) (β-glucuronidase; Example 3, 46.0 μg/ml): 666.1 pmole/tube/hr and 679.7 pmole/tube/hr and 662.9 pmole/tube/hr
 |  |  |  |  |  |  |  |  |  | N[C@@H](CO)C(=O)O [Ser, L-Serine] | remaining activity at 42.2 µg/mL (β-glucuronidase; Example 3, 42.2 μg/ml, read-out: % (activity relative to control)): 99.3%; mean (X̄) activity (β-glucuronidase; Example 3, 42.2 μg/ml): 669.2 pmole/tube/hr; Activity (pmole/tube/hr) (β-glucuronidase; Example 3, 42.2 μg/ml): 677.7 pmole/tube/hr and 670.6 pmole/tube/hr and 659.2 pmole/tube/hr
 |  |  |  |  |  |  |  |  |  | N[C@@H](CC(=O)O)C(=O)O [aspartic acid] | serum bilirubin level ([1]; a premature infant with neonatal hyperbilirubinemia, Kohno et al. 1963): lowered; effect on serum bilirubin concentrations ([1]; double-blind, pre-term formula-fed infants, given each of the first six days of life, Gray et al. 1971): no effect; serum bilirubin level ([1]; some cases of hyperbilirubinemia, Saito et al. 1964): decreased
